Patent US20100215741A1, “PHARMACEUTICAL COMPOUNDS” (priority 2009, published 2010)
Like-named read-outs stand apart in the source and are kept apart here.

Experiments:
CB2 receptors = molecular target: T1, CB2 receptors (Mus musculus, UniProt P47936); test: radioreceptor binding, displacement of [3H]-CP-55,940, CB2 (spleen)
T1 construct: the complete brain (excluding the cerebellum) and the spleen were quickly dissected and kept in ice; from tissue; host or cells: mouse spleen, membrane preparation
Experimental: (§1) The affinity of the compounds towards the CB1 and CB2 cannabinoidergic receptors was evaluated in vitro by radioreceptor binding studies using the following method.
(§2) The technique of the receptor binding allows to establish if, and with which affinity and specificity, a specific compound binds to a particular receptor. To evaluate the affinity of a specific compound to a particular receptor it is necessary to challenge in a particular tissue preparation wherein those specific receptors are present the compound to be tested with a radioactive labelled compound whose affinity for the same receptors is known. […] The amount of radioactivity present in the receptor-compound complex allows furthermore to stimate with great accuracy the amount of compound bound to the receptor. By said method it is therefore possible to stablish quickly the affinity of a new compound towards a specific receptor and thus to determine its pharmacological activity. With the same experimental protocol it is possible to evaluate the affinity of the compound towards other receptors and thus establish its specificity degree toward said other receptors.
(§3) The food and water were ad libitum.
(§4) The procedure adopted, based on the use of the compound [^3H]-CP-55,940 (New England Nuclear, Boston, Mass., USA), requires the use of the mouse brain as biological tissue for the evaluation of the affinity towards the CB1 receptors and of the mouse spleen for the affinity assay for the CB2 receptors.
(§5) The animals were sacrificed by cervical dislocation and the complete brain (excluding the cerebellum) and the spleen were quickly dissected and kept in ice.
(§6) The tissue was homogenized in 15 volumes (weight/-volume) of TME buffer (50 Mm Tris, 1 mM EDTA and 3 mM MgCl2, pH 7.4) by an Ultra-Turrax and subsequently centrifuged for 10 minutes at 1086×g in a centrifuge refrigerated at 4° C. The recovered supernatant was centrifuged at 45,000×g for 30 minutes at 4° C. by using a Beckman SW41 rotor and the obtained pellet was resuspended in 50 volumes of TME.
(§7) The thus obtained membranes (50-80 μg of proteins) were incubated in the presence of 1 nM of [^3H]-CP55.940 for 1 hour at 30° C. in a final volume of 0.5 ml of TME buffer containing […] (BSA). The non specific binding was measured in the presence of CP55.940 at a 1 μM concentration.
(§8) All the experiments were carried out in polypropylene test tubes pretreated with Sigma-Cote (Sigma Chemical Co. Ltd., Poole, UK) for reducing non specific binding.
(§9) In order to determine the competitive inhibition binding curves, eight different concentrations of each compound were used.
(§10) Incubation was stopped by addition of TME buffer (at 4° C.) containing 5 mg/ml of BSA, and subsequent filtration under vacuum by Whatman GFC filters pretreated with 0.5% of polyethylamine (PEI) and by using a filtering device (Brandell, Gaithersburg, Md., USA). The filters were washed 3 times with 5 ml of Tris HCl buffer (pH 7.4, 4° C.) containing 1 mg/ml of BSA and separately placed in plastic vials containing 4 ml of scintillating liquid (Ultima Gold MV, Packard).
(§11) The radioactivity present in the filters was determined by a scintillator spectrophotometer (Tricarb® 2100, Packard, Meridien, USA).
(§12) Protein determination was carried out by the Bradford method by using the protocol and the reactants supplied by Bio-Rad (Milano, Italy).

CB1 receptors = molecular target: T2, CB1 receptors (Mus musculus, UniProt P47746); test: radioreceptor binding, displacement of [3H]-CP-55,940, CB1 (brain)
T2 construct: the complete brain (excluding the cerebellum) and the spleen were quickly dissected and kept in ice; from tissue; host or cells: mouse brain (excluding the cerebellum), membrane preparation
Experimental: as §1, §2, §3, §4, §5, §6, §7, §8, §9, §10, §11, §12

[1] = mouse spleen membranes, 1 nM [3H]-CP55.940, 1 hour at 30° C., read-out: CB2 (spleen) Ki

T2 sequence (P47746 whole entry): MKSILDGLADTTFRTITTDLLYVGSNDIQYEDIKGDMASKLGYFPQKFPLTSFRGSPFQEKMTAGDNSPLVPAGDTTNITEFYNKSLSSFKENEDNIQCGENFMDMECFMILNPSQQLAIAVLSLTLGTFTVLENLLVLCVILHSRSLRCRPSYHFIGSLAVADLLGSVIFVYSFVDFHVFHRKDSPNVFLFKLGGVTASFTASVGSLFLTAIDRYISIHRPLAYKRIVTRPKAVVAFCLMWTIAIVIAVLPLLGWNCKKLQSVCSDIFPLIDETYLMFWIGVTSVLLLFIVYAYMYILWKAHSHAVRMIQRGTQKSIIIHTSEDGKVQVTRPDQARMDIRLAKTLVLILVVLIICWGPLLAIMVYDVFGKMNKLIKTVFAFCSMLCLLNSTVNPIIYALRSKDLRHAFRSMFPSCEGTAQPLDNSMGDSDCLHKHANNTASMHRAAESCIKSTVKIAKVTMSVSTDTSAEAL
T1 sequence (P47936 whole entry): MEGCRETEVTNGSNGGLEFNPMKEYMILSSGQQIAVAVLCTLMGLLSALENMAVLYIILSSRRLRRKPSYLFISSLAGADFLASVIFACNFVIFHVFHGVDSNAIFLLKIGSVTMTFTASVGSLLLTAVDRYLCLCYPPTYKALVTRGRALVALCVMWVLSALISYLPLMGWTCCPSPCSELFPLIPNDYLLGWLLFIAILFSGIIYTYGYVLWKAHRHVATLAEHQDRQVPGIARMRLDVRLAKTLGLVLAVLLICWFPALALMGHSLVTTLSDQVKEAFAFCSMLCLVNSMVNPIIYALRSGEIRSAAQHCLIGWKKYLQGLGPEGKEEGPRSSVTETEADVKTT

SMILES | melting point | Ki (CB2 receptors; [1]) | Ki (CB1 receptors) | Ki (CB2 receptors)
Cc1ccc2c(c1)oc1c(C(N)=O)nn(-c3ccc(Cl)cc3Cl)c12 [1-(2,4-dichlorophenyl)-6-methyl-1H-benzofuro [3,2-c]pyrazole-3-carboxamide] | 185 to 186 °C | – | – | –
CC1(C)C2CCC(CNC(=O)c3nn(-c4ccc(Cl)cc4Cl)c4c3CCCc3ccc(Cl)cc3-4)C1C2 (stereo not shown) [Example 3.1, N-myrtanyl-9-chloro-1-(2′,4′-dichlorophenyl)-1,4,5,6-tetrahydrobenzo[6,7]cyclohepta[1,2-c]pyrazol-3-carboxamide] | – | 23.3 ± 1.6 nM | 20 ± 5 nM | –
CC1(C)C2CCC(CNC(=O)c3nn(-c4ccc(Cl)cc4Cl)c4c3CCOc3cc(Cl)ccc3-4)C1C2 (stereo not shown) [Example 3.3, N-myrtanyl-8-chloro-1-(2′,4′-dichlorophenyl)-4,5-dihydrobenzo-1H-6oxa-cyclohepta[1,2-c]pyrazol-3-carboxamide] | 142 to 143 °C | 325 ± 38 nM | 21.7 ± 3 nM | –
CC1(C)C2CCC(CNC(=O)c3nn(-c4ccc(Cl)cc4Cl)c4c3CCCc3cc(Cl)ccc3-4)C1C2 (stereo not shown) [Example 3.4, N-myrtanyl-8-chloro-1-(2′,4′-dichlorophenyl)-1,4,5,6-tetrahydrobenzo[6,7]cyclohepta[1,2-c]pyrazol-3-carboxamide] | – | 19.6 ± 1.5 nM | 2.6 ± 0.17 nM | –
Cc1ccc2c(c1)Cc1c(C(=O)NCC3CCC4CC3C4(C)C)nn(-c3ccc(Cl)cc3Cl)c1-2 (stereo not shown) [Example 3.15, N-myrtanyl-1-(2′,4′-dichlorophenyl)-6-methyl-1,4-dihydroindeno[1,2-c]pyrazole-3-carboxamide] | – | 2.3 ± 0.5 nM | 350 ± 76 nM | –
Cc1ccc2c(c1)oc1c(C(=O)NN3CCCCC3)nn(-c3ccc(Cl)cc3Cl)c12 [Example 3.20, N-piperidinyl-1-(2,4-dichlorophenyl)-6-methyl-1H-benzofuro[3,2-c]pyrazole-3-carboxamide] | 155 to 157 °C | – | 1790 ± 330 nM | 12.9 ± 1.1 nM
Cc1ccc2c(c1)oc1c(C(=O)NN3CCCC3)nn(-c3ccc(Cl)cc3Cl)c12 [Example 3.21, N-pyrrolidinyl-1-(2,4-dichlorophenyl)-6-methyl-1H-benzofuro[3,2-c]pyrazole-3-carboxamide] | 90 to 92 °C | – | 2720 ± 652 nM | 29.5 ± 8 nM
Cc1ccc2c(c1)oc1c(C(=O)NN3CCOCC3)nn(-c3ccc(Cl)cc3Cl)c12 [Example 3.22, N-morpholin-4-yl-1-(2,4-dichlorophenyl)-6-methyl-1H-benzofuro[3,2-c]pyrazole-3-carboxamide] | 178 to 180 °C | – | 4060 ± 64 nM | 37.7 ± 6.3 nM
Cc1ccc2c(c1)oc1c(C(=O)NC3CCCCC3)nn(-c3ccc(Cl)cc3Cl)c12 [Example 3.23, N-cyclohexyl-1-(2,4-dichlorophenyl)-6-methyl-1H-benzofuro[3,2-c]pyrazole-3-carboxamide] | 140 to 142 °C | – | 1250 ± 129 nM | 15.6 ± 4 nM
Cc1ccc2c(c1)oc1c(C(=O)N[C@H]3C[C@@H](C)CC[C@@H]3C(C)C)nn(-c3ccc(Cl)cc3Cl)c12 [Example 3.24, N-2-isopropyl-5-methyl-cyclohexyl-1-(2,4-dichlorophenyl)-6-methyl-1H-benzofuro[3,2-c]pyrazole-3-carboxamide] | 70 to 72 °C | 2.3 ± 0.3 nM | 38.2 ± 6 nM | –
Cc1ccc2c(c1)oc1c(C(=O)N[C@@H]3C[C@H]4C[C@@H]([C@@H]3C)C4(C)C)nn(-c3ccc(Cl)cc3Cl)c12 [Example 3.25, N-2,6,6-trimethyl-bicyclo[3.1.1]hept-3-yl-1-(2,4-dichlorophenyl)-6-methyl-1H-benzofuro[3,2-c]pyrazole-3-carboxamide] | 85 to 87 °C | – | 2400 ± 629 nM | 3.7 ± 0.3 nM
Cc1ccc2c(c1)oc1c(C(=O)NC3C4(C)CCC(C4)C3(C)C)nn(-c3ccc(Cl)cc3Cl)c12 (stereo not shown) [Example 3.26, N-1,3,3-trimethyl-bicyclo[2.2.1]hept-2-yl-1-(2,4-dichlorophenyl)-6-methyl-1H-benzofuro[3,2-c]pyrazole-3-carboxamide] | 84 to 86 °C | – | 257 ± 7 nM | 2.5 ± 0.3 nM
Cc1ccc2c(c1)oc1c(C(=O)NC3CC4CCC3(C)C4(C)C)nn(-c3ccc(Cl)cc3Cl)c12 (stereo not shown) [Example 3.27, N-1,7,7-trimethyl-bicyclo[2.2.1]hept-2-yl-1-(2,4-dichlorophenyl)-6-methyl-1H-benzofuro[3,2-c]pyrazole-3-carboxamide] | 78 to 80 °C | – | 469 ± 64 nM | 3.5 ± 0.6 nM
Cc1ccc2c(c1)oc1c(C(=O)NC34CC5CC(CC(C5)C3)C4)nn(-c3ccc(Cl)cc3Cl)c12 [Example 3.28, N-adamantan-1yl-1-(2,4-dichlorophenyl)-6-methyl-1H-benzofuro[3,2-c]pyrazole-3-carboxamide] | 210 to 212 °C | – | 363 ± 92 nM | 28 ± 6.6 nM
Cc1ccc2c(c1)oc1c(C(=O)NC3C4CC5CC(C4)CC3C5)nn(-c3ccc(Cl)cc3Cl)c12 (stereo not shown) [Example 3.29, N-adamantan-2-yl-1-(2,4-dichlorophenyl)-6-methyl-1H-benzofuro[3,2-c]pyrazole-3-carboxamide] | 209 to 211 °C | – | 537 ± 132 nM | 17.5 ± 0.9 nM
